# Measured values taken from US4072757A, “N^2 alkoxynaphthylsulfonyl-L-argininamides and the pharmaceutically acceptable salts thereof” (Mitsubishi Chemical Industries Limited, priority 1974, dated 1978).
# Biological target: T1, thrombin (Bos taurus, UniProt P00735)
# T1 construct: clotting of bovine fibrinogen
# Assay: fibrinogen coagulation time
# Assay type: biochemical
# Details: bovine fibrinogen, thrombin 5 units/ml, borate saline buffer pH 7.4, 25° C; normal coagulation time 50-55 seconds to 100-110 seconds; read-out: Concentration required to prolong the coagulation time by a factor of two
# Method: The measurement of the fibrinogen coagulation time was conducted as follows:
# Immediately after mixing, the reaction mixture was transferred from the ice bath to a bath maintained at 25° C. Coagulation times were taken as the period between the time of transference to the 25° C bath and the time of the first appearance of fibrin threads.
# The term "concentration required to prolong the coagulation time by a factor of two" is the concentration of an active ingredient required to prolong the normal coagulation time 50-55 seconds to 100-110 seconds.
row,IC (2-fold clotting time),SMILES
1,3 µM,"COc1ccc2cc(S(=O)(=O)N[C@@H](CCCNC(=N)N)C(=O)N3CCCCC3C(=O)O)ccc2c1 (stereo partly drawn) [Sample 4, 1-[N^2-(6-methoxy-2-naphthylsulfonyl)-L-arginyl]-2-piperidinecarboxylic acid]"
2,0.4 µM,"COc1cc2ccc(S(=O)(=O)N[C@@H](CCCNC(=N)N)C(=O)N3CCC(C)CC3C(=O)O)cc2cc1OC (stereo partly drawn) [Sample 5, 1-[N^2-(6,7-dimethoxy-2-naphthylsulfonyl)-L-arginyl]-4-methyl-2-piperidinecarboxylic acid]"
3,0.15 µM,"COc1ccc2ccc(S(=O)(=O)N[C@@H](CCCNC(=N)N)C(=O)N3CCC(C)CC3C(=O)O)cc2c1 (stereo partly drawn) [Sample 7, 1-[N^2-(7-methoxy-2-naphthylsulfonyl)-L-arginyl]-4-methyl-2-piperidinecarboxylicacid]"
4,0.5 µM,"CCCC1CCN(C(=O)[C@H](CCCNC(=N)N)NS(=O)(=O)c2ccc3cc(OC)c(OC)cc3c2)C(C(=O)O)C1 (stereo partly drawn) [Sample 19, 1-[N^2-(6,7-dimethoxy-2-naphthylsulfonyl)-L-arginyl]-4-propyl-2-piperidinecarboxylic acid]"
5,12 µM,"COc1cc2ccc(S(=O)(=O)N[C@@H](CCCNC(=N)N)C(=O)N3CCC(c4ccccc4)CC3C(=O)O)cc2cc1OC (stereo partly drawn) [Sample 30, 1-[N^2-(6,7-dimethoxy-2-naphthylsulfonyl)-L-arginyl]-4-phenyl-2-piperidinecarboxylic acid]"

row,SMILES,IC (2-fold clotting time)
1,"COc1ccc2cc(S(=O)(=O)N[C@@H](CCCNC(=N)N)C(=O)N3CCC(C)CC3C(=O)O)cc(OC)c2c1 (stereo partly drawn) [Sample 11, 1-[N^2-(4,6-dimethoxy-2-naphthylsulfonyl)-L-arginyl]-4-methyl-2-piperidinecarboxylic acid]",0.35 µM

# System: not listed separately
# Assay: acute toxicity (LD50) by intraperitoneal administration in mice
# Details: mouse, in vivo, ip, mice (male, 20 g)
# Method: On the other hand, LD50 values for N^2 -dansyl-N-butyl-L-argininamide and N^2 -dansyl-N-methyl-N-butyl-L-argininamide are 75 and 70 milligrams per kilogram, respectively. The therapeutic agents of this invention may be administered to mammals including humans, alone or in combination with pharmaceutically acceptable carriers, the proportion of which is determined by the solubility and chemical nature of the compound, chosen route of administration and standard pharmaceutical practice. For example, the compounds may be injected parenterally, that is, intramuscularly, intravenously or subcutaneously. For parenteral administration, the compounds may be used in the form of sterile solutions containing other solutes, for example, sufficient saline or glucose to make the solution isotonic. The compounds may be administered orally in the form of tablets, capsules, or granules containing suitable excipients such as starch, lactose, white sugar and the like. The compounds may be administered sublingually in the form of troches or lozenges in which each active ingredient is mixed with sugar or corn syrups, flavoring agents and dyes, and then dehydrated sufficiently to make the mixture suitable for pressing into solid form. The compounds may be administered orally in the form of solutions which may contain coloring and flavoring agents.
row,SMILES,LD50
1,"COc1cc2ccc(S(=O)(=O)N[C@@H](CCCNC(=N)N)C(=O)N3CCCCC3C(=O)O)cc2cc1OC (stereo partly drawn) [Sample 2, 1-[N^2-(6,7-dimethoxy-2-naphthylsulfonyl)-L-arginyl]-2-piperidinecarboxylic acid]",1500 mg/kg
2,"CCOC(=O)C1CC(C)CCN1C(=O)[C@H](CCCNC(=N)N)NS(=O)(=O)c1ccc2ccc(OC)cc2c1 (stereo partly drawn) [Sample 6, Ethyl 1-[N^2-(7-methoxy-2-naphthylsulfonyl)-L-arginyl]-4-methyl-2-piperidinecarboxylate]",670 to 1000 mg/kg
3,"COc1ccc2cc(S(=O)(=O)N[C@@H](CCCNC(=N)N)C(=O)N3CCC(C)CC3C(=O)O)cc(OC)c2c1 (stereo partly drawn) [Sample 11, 1-[N^2-(4,6-dimethoxy-2-naphthylsulfonyl)-L-arginyl]-4-methyl-2-piperidinecarboxylic acid]",670 to 1000 mg/kg
